Assay: gradient 5% acetonitrile 3 min, to 50% in 2 min, to 85% in 15 min, held 3 min, 100 µL/min
Settings: column: Zorbax Extend-C18 2.1 x 50 mm; eluents: water / acetonitrile, 0.1% formic acid
Outline: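 Standards, all pure, were combined into mixtures of ~100 molecules and run at 100 μL/min on a Zorbax Extend-C18 column (2.1 × 50 mm, 1.8 μm) with water and acetonitrile, each containing 0.1% formic acid. A coupled quadrupole time-of-flight mass spectrometer operated in positive and negative ionization mode. Retention time values come from computationally picked adduct peaks, each inspected manually.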

| Structure (SMILES) | RP-LC retention time [s] |
| --- | --- |
| Cn1nccc1C(=O)N1CCCC1c1cccc(F)c1 (stereo not drawn) | 758 |
| CC1CCCN(Cc2nc(-c3ccc(N4CCSCC4)nc3)no2)C1 (stereo not drawn) | 856 |
| Cc1nc(CNC(=O)C2CCN(C(=O)Nc3ccccc3Br)CC2)cs1 | 655 |
| Cc1nnc2n1CCN(C(=O)c1cc(-c3ccccc3)n[nH]1)C2 | 608 |
| Cn1cc(SCC(=O)NCc2ccco2)c2ccccc21 | 778 |
| O=C(Cn1c(=O)n(C2CCCCC2)c2ncccc21)NCCN1CCOCC1 | 627 |
| CCOC(=O)c1c(C)oc2nc(C)nc(N3CCN(c4ccccc4OC)CC3)c12 | 1020 |
| Cc1ccc(C)c(N2CCN(C(=O)Cc3csc4nc(-c5ccc(C)c(C)c5)cn34)CC2)c1 | 1120 |
| O=C(c1cn(-c2cc(N3CCCCC3)ncn2)cn1)N1CCSCC1 | 789 |
| CC(C(=O)NCCc1c[nH]c2ccccc12)n1c2ccccc2c2cnn(C)c(=O)c21 (stereo not drawn) | 829 |
| Cc1ccc2c(Nc3ccc4c(c3)OCCO4)c(C(=O)N3CCCCC3C)cnc2n1 (stereo not drawn) | 623 |
| O=C(Nc1ccccc1Br)c1cnc(-c2ccccc2)nc1-c1ccncc1 | 927 |
| CCOC(=O)c1ccc(S(=O)(=O)NCCCn2nc(-c3ccncc3)ccc2=O)cc1 | 592 |
| CC(C)C(=O)N1CCCC(c2nc(CCNC(=O)C3CCC3)cs2)C1 (stereo not drawn) | 694 |
| CCC1(O)CCOC2(CCN(C(=O)C3CCCCCC3)CC2)C1 (stereo not drawn) | 823 |
| Cc1ccc(-c2csc(NC(=O)Cc3csc(-c4ccccc4)n3)n2)cc1 | 1210 |
| OCCNCc1ccc(-c2cc(Cl)cc(Cl)c2)o1 | 676 |
| Cc1nc(-c2cn(C(C)C)c3ncccc23)sc1C(=O)NCc1cccnc1 | 657 |
| CC(C)n1cnc(S(=O)(=O)N2CCC(C(=O)Nc3cccc(C(F)(F)F)c3)CC2)c1 | 862 |

| Structure (SMILES) | RP-LC retention time [s] |
| --- | --- |
| O=C([C@@H]1C[C@H](F)CN1S(=O)(=O)c1cc(F)ccc1F)N1CCc2ccccc2C1 | 906 |
| O=C(CCCN1C(=O)C(c2ccccc2)Oc2cccnc21)NCCCN1CCOCC1 (stereo not drawn) | 615 |
| CN(C)CC1(O)CCC2(CCN(C(=O)c3ccoc3)CC2)CC1 | 570 |
| Cc1ccccc1Cc1c(C)nc2nc(SCC(=O)NCCCN3CCOCC3)nn2c1C | 643 |
| CCOC(=O)c1noc2ncnc(NCc3cccc(Cl)c3)c12 | 1040 |
| CCc1nc2cc(-c3noc(Cc4ccc(NC(C)=O)cc4)n3)ccc2o1 | 916 |
| Cn1cc(CN2CCN(C(=O)c3cc(-c4cccs4)[nH]n3)CC2)c2ccccc21 | 664 |
| COc1ccc2[nH]cc(CCN3CC(C(=O)Nc4nnc(C(F)(F)F)s4)CC3=O)c2c1 (stereo not drawn) | 780 |
| Cc1nc(-c2ccccc2)sc1CC(=O)NCCC1=CCCCC1 | 947 |
| O=C(C1=CCN(Cc2cccc(F)c2)CC1)N1CCN(c2ccccc2F)CC1 | 666 |
| COC(=O)C1=CN(c2ccccc2C)c2ccc(F)cc2S1(=O)=O | 879 |
| CCCN(CCC)CCc1ccc(O)c(O)c1 | 602 |
| CCCNC(=O)c1cc2n(n1)CC(C)(C(=O)NCc1ccc(F)cc1)N(C)C2=O (stereo not drawn) | 688 |
| COc1ccc(-n2ccn3c(CCC(=O)N4CCN(c5ccccn5)CC4)nnc3c2=O)cc1 | 663 |
| COc1ccc(CNC(=O)N2C[C@@H]3C[C@H]2C[C@@H]3NS(=O)(=O)c2ccccc2)cc1 | 764 |
| O=C(Nc1nc(-c2ccc(Cl)cc2Cl)cs1)c1ccno1 | 981 |
| Cc1cccc(NS(=O)(=O)c2ccc3nncn3c2)c1 | 673 |
| COc1ccccc1N1C(=O)CC(N2CCC(C(N)=O)CC2)C1=O (stereo not drawn) | 547 |
| COc1cc(OC)c(NC(=O)N2CCC(n3c(C(F)(F)F)nc4cccnc43)CC2)cc1Cl | 956 |

Source: the METLIN SMRT retention time set (Domingo-Almenara et al. 2019)
